In US8853389B2, “Process for refining cefmetazole sodium” (Hainan Lingkang Pharmaceutical Co., Ltd., priority 2011, dated 2014):

Assays:
[1] = appearance of aqueous solution of refined material; assay type: physicochemical; conditions: solution of about 0.1 g/mL in water
[2] = tested on: Enterobacter; conditions: cited from earlier work
[3] = solubility in solvents; assay type: physicochemical
Description: Since the solubility of Cefmetazole sodium is high in water but very low in ethanol and even lower in acetone, a mixture of water and ethanol or a mixture of water and acetone is chosen as the solvent to recrystallize Cefmetazole sodium.

[4] = tested on: catarrhal Brenham bacteria; conditions: cited from earlier work
[5] = tested on: Salmonella; conditions: cited from earlier work
[6] = tested on: Bacteroides fragilis; conditions: cited from earlier work
[7] = tested on: Shigella; conditions: cited from earlier work
[8] = tested on: pneumococcus; conditions: cited from earlier work
[9] = tested on: Pseudomonas; conditions: cited from earlier work
[10] = tested on: methicillin-resistant Staphylococcus aureus; conditions: cited from earlier work
[11] = tested on: Klebsiella pneumoniae; conditions: cited from earlier work
[12] = tested on: Staphylococcus aureus; conditions: cited from earlier work
[13] = tested on: meningococcus; conditions: cited from earlier work
[14] = tested on: Escherichia coli; conditions: cited from earlier work
[15] = tested on: group A hemolytic streptococcus; conditions: cited from earlier work
[16] = tested on: Proteus mirabilis; conditions: cited from earlier work
[17] = tested on: broad-spectrum β-lactamase generated by negative bacilli; conditions: cited from earlier work

For `CO[C@]1(NC(=O)CSCC#N)C(=O)N2C(C(=O)[O-])=C(CSc3nnnn3C)CS[C@H]21.[Na+]` [Cefmetazole sodium], the appearance of solution [1] is listed as “clear and colorless”, the sensitivity [2] is listed as “low sensitivity or resistance” and the solubility ([3]; in ethanol) is listed as “very low”. For the same compound, the solubility ([3]; in water) was “high”, the sensitivity [4] was “high sensitivity” and the antibacterial activity [5] was “relatively good activity”. The antibacterial activity [6] was “good antibacterial activity”, the antibacterial activity [7] was “relatively good activity” and the sensitivity [8] was “low sensitivity or resistance”. The sensitivity [9] was “low sensitivity or resistance”, the sensitivity [10] was “low sensitivity or resistance” and the antibacterial activity [11] was “relatively good activity”. The sensitivity [12] was “high sensitivity”, the sensitivity [13] was “low sensitivity or resistance” and the antibacterial activity [14] was “relatively good activity”. The sensitivity [15] was “high sensitivity”, the antibacterial activity [16] was “relatively good activity” and the “stability towards β-lactamase” value [17] was “more stable”.
